pEC50: −log10 of the molar value.
Key:
Format in all cases: cell-based
[1] = biological target: T1, human receptor PPARα-Gal4 (Homo sapiens, UniProt Q07869); assay: PPAR-Gal4 transactivation test in transfected Cos-7 cells (luciferase reporter), PPARα; conditions: for pEC50: Cos-7 cells, overnight incubation; for Human receptor PPARα Top: induction as percentage of reference fenofibric acid at 10^-5 M (=100%)
T1 sequence (Q07869 200-468 limits assumed): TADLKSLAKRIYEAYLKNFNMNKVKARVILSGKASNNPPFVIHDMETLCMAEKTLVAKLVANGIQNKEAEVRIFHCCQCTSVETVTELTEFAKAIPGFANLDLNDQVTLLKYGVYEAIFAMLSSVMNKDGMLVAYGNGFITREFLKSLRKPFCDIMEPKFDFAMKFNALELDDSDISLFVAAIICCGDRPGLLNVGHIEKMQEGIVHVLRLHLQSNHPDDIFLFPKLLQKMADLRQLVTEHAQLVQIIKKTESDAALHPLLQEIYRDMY
Procedure: (§1) A transactivation test was used as the primary screening test. Cos-7 cells were transfected with a plasmid expressing a chimera of a murine or human receptor PPAR-Gal4 (receptor PPARα-Gal4 or PPARδ-Gal4 or PPARγ-Gal4) and of a reporter plasmid 5Gal4pGL3 TK Luc. The transfections were carried out using a chemical agent (Jet PEI). Transfected cells were distributed into 384 well plates and allowed to stand for 24 hours. At 24 hours the culture medium was changed. The products to be tested were added (final concentration between 10^−4 and 3.10^−10 M) to the culture medium. After overnight incubation, luciferase expression was measured after addition of “SteadyGlo” according to the manufacturer's instructions (Promega).
(§2) Fenofibric acid at 10^−5 M (PPARα agonist), GW501516 at 10^−8 M (PPARδ agonist) and rosiglitazone at 10^−6 M (PPARγ agonist) were used as references.
(§3) The results are expressed as the induction rate (number of times) compared to the basal level as a percentage of activity of the adequate reference (reference=100%). Effect-concentration curves and EC50 were calculated using Assay Explorer (MDL) software.

[2] = biological target: T2, human receptor PPARδ-Gal4 (Homo sapiens, UniProt Q03181); assay: PPAR-Gal4 transactivation test in transfected Cos-7 cells (luciferase reporter), PPARδ; conditions: for pEC50: Cos-7 cells, overnight incubation; for Human receptor PPARδ Top: induction as percentage of reference GW501516 at 10^-8 M (=100%)
T2 sequence (Q03181 171-441 limits assumed): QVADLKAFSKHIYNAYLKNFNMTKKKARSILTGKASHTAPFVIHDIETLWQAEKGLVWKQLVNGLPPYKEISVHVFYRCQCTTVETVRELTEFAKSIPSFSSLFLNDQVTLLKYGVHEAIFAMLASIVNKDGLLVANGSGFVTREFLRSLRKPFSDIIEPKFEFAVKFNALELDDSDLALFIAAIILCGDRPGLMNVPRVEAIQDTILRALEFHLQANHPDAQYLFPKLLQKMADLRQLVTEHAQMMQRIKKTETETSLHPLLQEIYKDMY
Procedure: as §1, §2, §3

[3] = biological target: T3, human receptor PPARγ-Gal4 (Homo sapiens, UniProt P37231); assay: PPAR-Gal4 transactivation test in transfected Cos-7 cells (luciferase reporter), PPARγ; conditions: for pEC50: Cos-7 cells, overnight incubation; for Human receptor PPARγ Top: induction as percentage of reference rosiglitazone at 10^-6 M (=100%)
T3 sequence (P37231 238-505 limits assumed): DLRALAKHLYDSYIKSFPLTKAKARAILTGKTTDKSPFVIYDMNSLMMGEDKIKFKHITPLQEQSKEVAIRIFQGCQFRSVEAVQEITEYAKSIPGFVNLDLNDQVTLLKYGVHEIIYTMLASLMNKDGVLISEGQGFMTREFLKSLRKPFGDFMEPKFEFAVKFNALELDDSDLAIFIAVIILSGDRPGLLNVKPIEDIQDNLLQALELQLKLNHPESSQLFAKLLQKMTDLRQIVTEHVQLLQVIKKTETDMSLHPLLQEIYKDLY
Procedure: as §1, §2, §3

Row | Structure (SMILES) | pEC50 [1] | pEC50 [2] | pEC50 [3] | Human receptor PPARα Top [1] [%] | Human receptor PPARδ Top [2] [%] | Human receptor PPARγ Top [3] [%]
1 | O=C(O)CCCc1cc2cc(Cl)ccc2n1S(=O)(=O)c1ccc2ncsc2c1 [Example 1] | 5.64 | 6.02 | 7.07 | – | – | –
2 | [2H]c1nc2ccc(S(=O)(=O)n3c(CCCC(=O)O)cc4cc(Cl)ccc43)cc2s1 [Example 1] | – | – | – | 67 | 80 | 53
3 | [2H]C([2H])(C(=O)O)C([2H])([2H])C([2H])([2H])c1cc2cc(Cl)ccc2n1S(=O)(=O)c1ccc2ncsc2c1 [Example 2, 4-[1-(1,3-Benzothiazol-6-ylsulfonyl)-5-chloro-indol-2-yl]-2,2,3,3,4,4-hexadeuteriobutanoic acid] | 5.64 | 5.93 | 6.87 | 62 | 80 | 50
